The results in this text go back to PubChem BioAssay (NCI).

“And” between values parts separate entries of the source, which are not always exact repeats. Equal entries are not always repeated.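 Each compound was tested at five concentrations against cells in 96-well plates for 48 hours. GI50 is the concentration that inhibits growth by half. TGI marks complete inhibition of growth.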 A value given as a limit tells only on which side of the number the result lay.

Among the test systems are KM12 colon; HCC-2998 colon; UO-31 renal; DMS 114 small cell lung; ACHN renal; HL-60(TB) leukemia; SK-OV-3 ovarian; SK-MEL-28 melanoma; BT-549 breast; DMS 273 small cell lung.
Experiment in all cases: DTP human tumour cell line panel, 48 h

What is called TGI is the concentration giving total growth inhibition. Lower therefore signals more potent growth arrest. In the case of `C/C(=N\NC(=S)N1CC2CCC(CC2)C1)c1nccs1`, the TGI in the assay with KM12 colon is 17.6 µM; in the assay with HCC-2998 colon, 15.9 µM; in the assay with UO-31 renal, 1.52 µM; in the assay with DMS 114 small cell lung, 0.218 µM; in the assay on ACHN renal, 8.99 µM; with HL-60(TB) leukemia, 0.0184 µM. Further, the TGI came to 11.3 µM with SK-OV-3 ovarian, 19.3 µM in the assay with SK-MEL-28 melanoma, 20 µM with BT-549 breast and 4.93 µM with DMS 273 small cell lung.
For the molecule `C=C1C(=O)O[C@@H]2C[C@@H](C)[C@@H]3C=CC(=O)[C@@]3(C)[C@@H](O)[C@H]12`, the TGI in the assay with KM12 colon was 3.31 µM; in the assay with HCC-2998 colon, 2.85 µM; with UO-31 renal, 3.65 µM; in the assay with DMS 114 small cell lung, 3.84 µM; in the assay on ACHN renal it was 6.33 µM; in the assay on HL-60(TB) leukemia, 2.4 µM. The TGI in the assay with SK-MEL-28 melanoma was found to be 3.77 µM; in the assay with BT-549 breast it was 2.32 µM; in the assay on DMS 273 small cell lung, 4.48 µM.
Consider `CSC(=Nc1nnc(-c2ccc([N+](=O)[O-])cc2)s1)SC`, for which the TGI in the assay on KM12 colon was greater than 100 µM; in the assay on HCC-2998 colon it was greater than 100 µM; in the assay on UO-31 renal it was 71.5 µM; in the assay on DMS 114 small cell lung, greater than 82 µM; with ACHN renal it was greater than 100 µM; in the assay on HL-60(TB) leukemia, greater than 100 µM. The TGI in the assay with SK-OV-3 ovarian was 62.4 µM; with SK-MEL-28 melanoma it was greater than 100 µM; in the assay with BT-549 breast, greater than 100 µM; in the assay on DMS 273 small cell lung, greater than 100 µM.
As for `C=C(C)[C@@H]1CC[C@]2(C)CC[C@]3(C)[C@H](CC[C@@H]4[C@@]5(C)CC[C@H](O)C(C)(C)[C@@H]5CC[C@]43C)[C@@H]12`, the TGI is greater than 100 µM with KM12 colon; greater than 100 µM in the assay with HCC-2998 colon; greater than 72.1 µM with UO-31 renal; greater than 100 µM in the assay with DMS 114 small cell lung; greater than 100 µM in the assay on ACHN renal; greater than 100 µM in the assay with HL-60(TB) leukemia. Moreover, the results for the TGI in the assay with SK-MEL-28 melanoma, with BT-549 breast and in the assay on DMS 273 small cell lung were greater than 100 µM, 29.3 µM and greater than 100 µM, respectively.
As to `CN(/N=C/c1cccc2cccnc12)c1ccc([N+](=O)[O-])cc1[N+](=O)[O-]`, the TGI is greater than 100 µM in the assay on KM12 colon; greater than 100 µM in the assay with HCC-2998 colon; 90.1 µM in the assay on UO-31 renal; greater than 61.9 µM with DMS 114 small cell lung; 59.3 µM in the assay with ACHN renal; greater than 68.1 µM in the assay with HL-60(TB) leukemia. The TGI was 52.8 µM with SK-OV-3 ovarian, greater than 100 µM in the assay on SK-MEL-28 melanoma, 59.7 µM in the assay on BT-549 breast and greater than 55.7 µM in the assay with DMS 273 small cell lung.
A word on the GI50: it is the concentration that inhibits growth by half. Regarding `CN(O)C(=O)SCC(NC(=O)CCC(N)C(=O)O)C(=O)NCC(=O)O` (stereo not given), the GI50 is greater than 2 µM in the assay with KM12 colon; greater than 2000 µM in the assay with UO-31 renal; greater than 2000 µM in the assay with DMS 114 small cell lung; greater than 2000 µM with ACHN renal; > 2 µM and 1200 µM with HL-60(TB) leukemia; greater than 2000 µM in the assay with SK-OV-3 ovarian. The GI50 with SK-MEL-28 melanoma and in the assay with DMS 273 small cell lung was greater than 2000 µM throughout. The TGI was greater than 2000 µM in the assay with KM12 colon; greater than 2 µM in the assay with HCC-2998 colon; greater than 2000 µM with UO-31 renal; greater than 2000 µM in the assay on DMS 114 small cell lung; greater than 2000 µM in the assay on ACHN renal; greater than 2000 µM in the assay on HL-60(TB) leukemia. The TGI in the assay on SK-OV-3 ovarian, in the assay with SK-MEL-28 melanoma and with DMS 273 small cell lung was greater than 2000 µM in each case.
